Assay results as given in the NIST ThermoML archive (doi:10.1021/je200757a).

Columns and labels:
[1] = xn = mol fraction of the nth substance listed; settings: for viscosity / mass density: 101 kPa, Liquid; for viscosity: Capillary tube (Ostwald / Ubbelohde) method; for mass density: Vibrating tube method
[2] = refractive index (Na D-line) (dimensionless); xn = mol fraction of the nth substance listed; settings: 101 kPa, Liquid

C1C[C@@H]2[C@H]3CC[C@H](C3)[C@@H]2C1 [exo-tetrahydrodicyclopentadiene] + CCCCCCCCCCCC
Settings | mass density, [1] [kg/m3] | refractive index, [2] | surface tension liquid-gas, [1] [mN/m] | viscosity, [1] [mPa·s]
293.15 K, x2 = 0 | 935.3 | 1.4877 | 31.86 | 3.077
293.15 K, x2 = 0.0803 | 913 | 1.4796 | 30.13 | 2.796
293.15 K, x2 = 0.1712 | 889.9 | 1.4711 | 29.15 | 2.54
293.15 K, x2 = 0.2563 | 870 | 1.462 | 28.63 | 2.34
293.15 K, x2 = 0.3428 | 851.4 | 1.4573 | 27.95 | 2.169
293.15 K, x2 = 0.4443 | 831.4 | 1.4502 | 27.32 | 2.006
293.15 K, x2 = 0.5407 | 814.1 | 1.4448 | 26.32 | 1.881
293.15 K, x2 = 0.6527 | 795.7 | 1.4383 | 25.94 | 1.764
293.15 K, x2 = 0.7596 | 779.8 | 1.4325 | 25.67 | 1.672
293.15 K, x2 = 0.8855 | 762.7 | 1.4271 | 24.51 | 1.574
298.15 K, x2 = 0 | 931.4 | – | – | 2.784
298.15 K, x2 = 0.0803 | 909.1 | – | – | 2.535
298.15 K, x2 = 0.1712 | 886.1 | – | – | 2.307
298.15 K, x2 = 0.2563 | 866.2 | – | – | 2.127
298.15 K, x2 = 0.3428 | 847.7 | – | – | 1.974
298.15 K, x2 = 0.4443 | 827.7 | – | – | 1.827
298.15 K, x2 = 0.5407 | 810.4 | – | – | 1.715
298.15 K, x2 = 0.6527 | 792 | – | – | 1.61
298.15 K, x2 = 0.7596 | 776.1 | – | – | 1.526
298.15 K, x2 = 0.8855 | 759.1 | – | – | 1.438
303.15 K, x2 = 0 | 927.5 | 1.4832 | 31.09 | 2.525
303.15 K, x2 = 0.0803 | 905.2 | 1.4733 | 29.37 | 2.308
303.15 K, x2 = 0.1712 | 882.2 | 1.4657 | 28.51 | 2.104
303.15 K, x2 = 0.2563 | 862.4 | 1.4571 | 27.82 | 1.944
303.15 K, x2 = 0.3428 | 843.9 | 1.4524 | 26.77 | 1.807
303.15 K, x2 = 0.4443 | 824 | 1.4455 | 26.51 | 1.674
303.15 K, x2 = 0.5407 | 806.6 | 1.4396 | 25.84 | 1.572
303.15 K, x2 = 0.6527 | 788.3 | 1.4333 | 25.68 | 1.476
303.15 K, x2 = 0.7596 | 772.5 | 1.4279 | 24.58 | 1.4
303.15 K, x2 = 0.8855 | 755.5 | 1.4214 | 23.82 | 1.321
313.15 K, x2 = 0 | 919.6 | – | – | 2.112
313.15 K, x2 = 0.0803 | 897.4 | – | – | 1.939
313.15 K, x2 = 0.1712 | 874.5 | – | – | 1.775
313.15 K, x2 = 0.2563 | 854.7 | – | – | 1.644
313.15 K, x2 = 0.3428 | 836.2 | – | – | 1.532
313.15 K, x2 = 0.4443 | 816.4 | – | – | 1.422
313.15 K, x2 = 0.5407 | 799.2 | – | – | 1.337
313.15 K, x2 = 0.6527 | 780.9 | – | – | 1.257
313.15 K, x2 = 0.7596 | 765.1 | – | – | 1.193
313.15 K, x2 = 0.8855 | 748.1 | – | – | 1.128
